In patent publication US20260200890A1, “ADAR1 INHIBITORS AND METHODS OF USING THE SAME” (AVAMMUNE THERAPEUTICS INC., priority 2022, published 2026) one finds EC50 data, which are given here for 49 compounds.

The target in the experiment is T1, ADAR1 (Homo sapiens, UniProt P55265).
T1 construct: endogenous in cells; host or cells: p110 KO A549 dual cells
T1 sequence (P55265 1-1226): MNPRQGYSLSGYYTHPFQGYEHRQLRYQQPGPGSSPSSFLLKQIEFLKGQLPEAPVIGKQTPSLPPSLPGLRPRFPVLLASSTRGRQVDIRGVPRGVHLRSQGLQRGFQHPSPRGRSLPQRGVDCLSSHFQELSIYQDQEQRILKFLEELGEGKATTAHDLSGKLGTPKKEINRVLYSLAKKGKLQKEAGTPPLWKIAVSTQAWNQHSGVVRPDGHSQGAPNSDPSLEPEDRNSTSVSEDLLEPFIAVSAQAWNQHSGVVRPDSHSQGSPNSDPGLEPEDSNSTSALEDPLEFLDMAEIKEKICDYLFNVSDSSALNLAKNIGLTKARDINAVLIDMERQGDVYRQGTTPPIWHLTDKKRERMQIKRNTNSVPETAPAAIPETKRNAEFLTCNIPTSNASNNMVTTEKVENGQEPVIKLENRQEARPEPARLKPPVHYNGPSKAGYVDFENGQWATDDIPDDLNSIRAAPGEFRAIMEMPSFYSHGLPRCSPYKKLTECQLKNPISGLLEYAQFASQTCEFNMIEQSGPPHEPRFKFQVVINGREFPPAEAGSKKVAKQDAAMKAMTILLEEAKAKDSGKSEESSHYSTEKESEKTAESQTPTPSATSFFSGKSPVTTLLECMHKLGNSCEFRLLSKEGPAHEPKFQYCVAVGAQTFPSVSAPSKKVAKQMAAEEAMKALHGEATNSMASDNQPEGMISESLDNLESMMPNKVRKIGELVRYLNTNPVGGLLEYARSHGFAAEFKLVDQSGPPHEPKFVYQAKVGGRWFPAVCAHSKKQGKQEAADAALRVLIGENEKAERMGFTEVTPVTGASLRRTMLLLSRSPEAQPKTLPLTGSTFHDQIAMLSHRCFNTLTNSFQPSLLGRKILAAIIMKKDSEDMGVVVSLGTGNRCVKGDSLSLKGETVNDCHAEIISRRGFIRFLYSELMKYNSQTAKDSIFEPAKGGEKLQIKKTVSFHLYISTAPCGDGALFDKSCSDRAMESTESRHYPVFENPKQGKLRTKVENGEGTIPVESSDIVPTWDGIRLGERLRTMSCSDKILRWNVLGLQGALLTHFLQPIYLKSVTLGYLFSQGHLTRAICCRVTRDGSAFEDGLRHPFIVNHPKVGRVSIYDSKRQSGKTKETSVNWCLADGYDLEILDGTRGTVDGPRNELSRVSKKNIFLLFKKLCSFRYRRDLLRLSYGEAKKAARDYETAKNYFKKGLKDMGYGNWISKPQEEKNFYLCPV
Kind of experiment: ADAR1 Inhibition Assay (IFN fold-induction, Quanti-Luc luminescence, p110 KO A549 dual cells). The format is cell-based. As to conditions: IFN fold-induction vs DMSO, 24 and 48 h. The method, then: An ADAR1 Inhibition Assay was used to determine the biological activity (EC50) of compounds disclosed herein. 100 μL of p110 KO A549 dual cell suspension in supplemented DMEM (20,000 cells per well) was added into a flat bottom 96 well plate. Next day, post media change, 180 μL of supplemented DMEM was added. 20 μL of test compound or positive control was added to the respective wells (Final concentration of DMSO is 1%). The plate was incubated for 24 and 48 hours at 37° C. in a 5% CO2 incubator. After 24 and 48 h, 20 μL of cell suspension was taken in black well plates and 50 μL of Quanti-Luc was added to each well and luminescence was measured using a microplate reader (Spectra Max). IFN fold-induction was plotted considering DMSO as control using the relative luminescence unit (RLU) values. (Fold induction: Sample RLU/Average DMSO RLU).

pEC50: −log10 of the molar value.

Take `CCOC(=O)c1cc(-c2ccccc2)sc1NC(=O)COC(=O)c1cccc(NS(=O)(=O)N2CCOCC2)c1` [Compound 136]: the pEC50 (as a rule, −log10 of the EC50, conventionally taken in molar units) is less than 4.00.
Then `CCOC(=O)c1cc(-c2ccccc2)sc1NC(=O)C1CCN(C(=O)c2cccc(NS(C)(=O)=O)c2)C1` (stereo not shown) [Compound 138, Ethyl 2-(1-(3-(methylsulfonamido)benzoyl)pyrrolidine-3-carboxamido)-5-phenylthiophene-3-carboxylate], with not below 4.60; and `CCOC(=O)c1cc(-c2ccccc2)sc1CC(=O)C1CCCN1C(=O)c1cccc(C#N)c1` (stereo not shown) [Compound 139], with less than 4.00.
In turn, `CCOC(=O)c1cc(-c2ccccc2)sc1NC(=O)COC(=O)c1cccc(NS(=O)(=O)N2CCCCC2)c1` [Compound 140] gave a pEC50 of less than 4.00.
As to `CCOC(=O)c1nc(-c2ccccc2)[nH]c1NC(=O)COC(=O)c1cccc(NS(C)(=O)=O)c1` [Compound 141], the pEC50 is less than 4.00.
Then `CCOC(=O)c1cc(-c2ccccc2)sc1NC(=O)COC(=O)C1CCCN(S(C)(=O)=O)C1` (stereo not shown) [Compound 142], with less than 4.00.
The figure for `CCOC(=O)c1cc(-c2ccccc2)sc1NC(=O)CN1CCN(S(C)(=O)=O)CC1` [Compound 143] is less than 4.00.
Then `CCOC(=O)c1nc(-c2ccccc2)oc1NC(=O)COC(=O)c1cccc(NS(C)(=O)=O)c1` [Compound 145], with less than 4.00; and `CCOC(=O)c1cc(-c2ccccc2)sc1NC(=O)C1CCN1C(=O)c1cccc(NS(C)(=O)=O)c1` (stereo not shown) [Compound 146], with less than 4.00; and `CCOC(=O)c1cc(-c2ccccc2)sc1NC(=O)C1CC2(CC2)CN1C(=O)c1cccc(NS(C)(=O)=O)c1` (stereo not shown) [Compound 148], with less than 4.00.
Consider `CCOC(=O)c1cc(-c2ccccc2)sc1NC(=O)/C=C/c1cccc(NS(C)(=O)=O)c1` [Compound 149], for which the pEC50 was less than 4.00.
The figure for `CCOC(=O)c1cc(-c2ccccc2)sc1NC(=O)CN(C)C(=O)c1cccc(NS(C)(=O)=O)c1` [Compound 151] is less than 4.00; for `CCOC(=O)c1cc(-c2ccccc2)sc1NC(=O)C1CCCN(C(=O)c2cccc(NS(C)(=O)=O)c2)C1` (stereo not shown) [Compound 152] it is less than 4.00.
Then `CS(=O)(=O)Nc1cccc(C(=O)OCC(=O)Nc2nnc(-c3ccccc3)s2)c1` [Compound 153], with not below 4.60; and `CS(=O)(=O)Nc1cccc(C(=O)OCC(=O)Nc2sc(-c3ccccc3)cc2C(=O)O)c1` [Compound 154], with less than 4.00.
The figure for `CCOC(=O)c1cc(-c2ccccc2)sc1NC(=O)CN(C(=O)c1cccc(NS(C)(=O)=O)c1)C1CC1` [Compound 155] is less than 4.00; for `CCOC(=O)c1cc(-c2ccccc2)sc1NC(=O)[C@H]1CCN(C(=O)c2cccc(NS(C)(=O)=O)c2)C1` [Compound 156] it is not below 4.60.
With `CCOC(=O)c1cc(-c2ccccc2)sc1NC(=O)[C@H]1CCN(C(=O)c2cccc(NS(C)(=O)=O)c2)C1` [Compound 157], the pEC50 is less than 4.00.
Then `CCOC(=O)c1cc(-c2ccccc2)sc1NC(=O)C1CCN(C(=O)c2cccc(NS(=O)(=O)N3CCOCC3)c2)C1` (stereo not shown) [Compound 158], with less than 4.00.
The figure for `CCOC(=O)c1cc(-c2cc[nH]n2)sc1NC(=O)COC(=O)c1cccc(NS(C)(=O)=O)c1` [Compound 159] is less than 4.00.
Consider `CCOC(=O)c1cc(-c2ccccc2)sc1NC(=O)COC1CCN(S(C)(=O)=O)CC1` [Compound 160], for which the pEC50 was less than 4.00.
Then `CCOC(=O)c1cc(-c2ccccc2)sc1NC(=O)CN(C(=O)c1cccc(NS(C)(=O)=O)c1)C(C)C` [Compound 162], with less than 4.00.
`CCOC(=O)c1cc(-c2ccccc2)sc1NC(=O)CC1CCN(C(=O)c2cccc(NS(C)(=O)=O)c2)CC1` [Compound 164]: the negative logarithm of the EC50 (pEC50) was less than 4.00.
Compound `CCOC(=O)c1cc(-c2ccccc2)sc1NC(=O)CCc1cccc(NS(C)(=O)=O)c1` [Compound 165] had a pEC50 of less than 4.00.
Then `CCOC(=O)c1cc(-c2ccccc2)sc1NC(=O)COC(=O)Nc1cccc(NS(C)(=O)=O)c1` [Compound 166], with less than 4.00.
Then `CCOC(=O)c1cc(-c2ccccc2)sc1NC(=O)N1CCN(C(=O)c2cccc(NS(C)(=O)=O)c2)CC1` [Compound 167], with less than 4.00; and `CCOC(=O)c1cc(-c2ccccc2)sc1NC(=O)C1CCN(C(=O)c2cccc(NS(C)(=O)=O)c2)CC1` [Compound 168], with less than 4.00; and `CCOC(=O)c1cc(-c2ccccc2)sc1NC(=O)CCNc1cccc(NS(C)(=O)=O)c1` [Compound 169], with less than 4.00.
The figure for `CCOC(=O)c1cc(-c2ccncc2)sc1NC(=O)COC(=O)c1cccc(NS(C)(=O)=O)c1` [Compound 170] is less than 4.00; for `CS(=O)(=O)Nc1cccc(C(=O)N2CCC(C(=O)Nc3nnc(-c4ccccc4)s3)C2)c1` (stereo not shown) [Compound 173] it is less than 4.00.
`CCOC(=O)c1cc(-c2ccccc2)sc1NC(=O)COC(=O)c1cccc(S(C)(=N)=O)c1` (stereo not shown) [Compound 174] showed a negative logarithm of the EC50 (pEC50) of less than 4.00.
Then `CCOC(=O)c1cc(-c2ccccc2)sc1NC(=O)Cn1cnc2c(N)ncnc21` [Compound 176], with less than 4.00; and `CCOC(=O)c1cc(-c2ccccc2)sc1NC(=O)COC(=O)c1cccc(CNS(C)(=O)=O)c1` [Compound 177], with less than 4.00; and `CCOC(=O)c1cc(-c2ccccc2)sc1NC(=O)COC(=O)N1CCN(S(C)(=O)=O)CC1` [Compound 178], with less than 4.00.
For the compound `CCOC(=O)c1cc(-c2ccccc2)sc1NC(=O)COCc1cccc(N(S(C)(=O)=O)S(C)(=O)=O)c1` [Compound 179], the pEC50 is less than 4.00.
As for `CCOC(=O)c1cc(-c2ccccc2)sc1NC(=O)Cn1cc(-c2cccc(NS(C)(=O)=O)c2)nn1` [Compound 181], the pEC50 is less than 4.00.
For `CCOC(=O)c1cc(-c2ccccc2)sc1NC(=O)Cn1nncc1-c1cccc(NS(C)(=O)=O)c1` [Compound 182], the pEC50 was less than 4.00.
Then `CCOC(=O)c1cc(-c2ccccc2)sc1NC(=O)COC(=O)c1cccc(NS(C)(=O)=O)n1` [Compound 183], with less than 4.00.
The figure for `CCOC(=O)c1cc(-c2ccccc2)sc1NC(=O)C1CCN(Cc2cccc(NS(C)(=O)=O)c2)C1` (stereo not shown) [Compound 184] is less than 4.00; for `CS(=O)(=O)Nc1cccc(C(=O)OCC(=O)Nc2nnc(-c3ccccc3)o2)c1` [Compound 185] it is less than 4.00; for `CN(C)C(=O)c1cc(-c2ccccc2)sc1NC(=O)COC(=O)c1cccc(NS(C)(=O)=O)c1` [Compound 186] it is less than 4.00.
Regarding `CCOC(=O)c1cc(-c2ccccc2)sc1NC(=O)COC(=O)c1cccc(N)c1` [Compound 187], the pEC50 was less than 4.00.
Regarding `CCOC(=O)c1cc(-c2ccccc2F)sc1NC(=O)COC(=O)c1cccc(NS(C)(=O)=O)c1` [Compound 188], the pEC50 was less than 4.00.
Then `CCOC(=O)c1cc(-c2ccccc2)ncc1NC(=O)COC(=O)c1cccc(NS(C)(=O)=O)c1` [Compound 189], with not below 4.60.
`CCOC(=O)c1c(NC(=O)COC(=O)c2cccc(NS(C)(=O)=O)c2)sc(-c2ccccc2)c1C` [Compound 190]: the pEC50 was less than 4.00.
The figure for `COC(=O)c1cc(-c2ccccc2)sc1NC(=O)COC(=O)c1cccc(NS(C)(=O)=O)c1` [Compound 191] is less than 4.00; for `CCOC(=O)c1cc(-c2cccc(C)c2)sc1NC(=O)COC(=O)c1cccc(NS(C)(=O)=O)c1` [Compound 192] it is less than 4.00; for `CCOC(=O)c1cc(-c2ccccc2)sc1NC(=O)COC(=O)c1cccc(S(=O)(=O)NC(=O)CC)c1` [Compound 193] it is less than 4.00.
The figure for `CS(=O)(=O)Nc1cccc(NC(=O)CSc2nc(N)nc3nc[nH]c23)c1` [Compound 194] is less than 4.00.
